The record followed here is patent US12390435B2, “Electrophiles and electrophile pro-drugs as RAD51 inhibitors” (University of Pittsburgh—Of the Commonwealth System of …, priority 2018, dated 2025).

One experiment deals with T1, RAD51-ABL complex (Homo sapiens, UniProt Q06609).
T1 construct: expressed in transfected cells; host or cells: HEK 293T
As to the kind of experiment: FLAG-RAD51/ABL immunoprecipitation in 293T cells. It counts as cell-based. The following applies: 0 to 5 μM, 1 h. As for the experimental part:
Cell lysates and immunoprecipitation were prepared. For immunoprecipitation analysis, one million HEK 293T cells were transiently transfected with Fugene 6 (Promega) and 2 μg pQCXIP (EV) or FLAG-RAD51 pQCXIP plasmids and precipitated with Anti-FLAG M2 Affinity Gel (Sigma).
Cys319 is located in the RAD51 C-terminus within one of the two ABL-SH3 binding domains (amino acids 283-286 and 318-321). […] ABL regulates RAD51 activity via sequential phosphorylation of RAD51 Tyr54 and then Tyr315.

Another experiment concerns MDA-MB-231 cells. As to the kind of experiment: Cell cycle analysis with propidium iodide. It counts as cell-based. Particulars: 5 μM NO2-OA versus DMSO. The protocol: Samples were analyzed at the Flow Cytometry Core at MWRI utilizing a BD LSRII (BD).
In experiment [1] the test system is RelA in MDA-MB-231 and MDA-MB-468 cells. The experiment in a line: RelA protein level and polyubiquitination. It counts as cell-based. The protocol:
Lysates were clarified by centrifugation at 14,000×g for 10 min. Protein lysates (1 mg) were incubated with anti-RelA antibody and Protein G/A conjugated agarose beads (EMD Millipore, Bedford, MA) at 4° C., overnight. Immunoprecipitation fraction were obtained by centrifugation at 14,000×g for 1 min at RT and washed with lysis buffer three times. The immunoprecipitated RelA was resolved by 8% SDSPAGE gel, and transferred to nitrocellulose membrane (Bio-Rad) for immunoblotting probed with an anti-ubiquitin antibody (Santa Cruz Biotechnology). The blot was then stripped and probed with an anti-RelA antibody to assess amounts of RelA protein pull-down.
Western blotting was performed. 20-60 μg of total lysates per lane were loaded on 7%, 10%, or 12% SDS-PAGE and transferred onto nitrocellulose or polyvinylidene difluoride membranes (Bio-Rad). The membranes were probed with primary antibodies against caspase-3, multi-drug resistance protein-1 (MRP1), poly [ADP ribose] polymerase-1 (PARP-1), ubiquitin, RelA; cyclin D1, p21, caspase-9, MRP4, IKKβ, pIKKβ, IκBα, or pIκBα (Cell Signaling); caspase-8 (R&D Systems). Samples were normalized to β-actin (Sigma-Aldrich) or GAPDH (Trevigen).

In experiment [2] the test system is NHEJ (EJ5-GFP, U2OS cells). As to the kind of experiment: EJ5-GFP NHEJ reporter assay in U2OS cells. It counts as cell-based. The following applies: 5 μM, 48 h flow cytometry or 68 h live-cell microscopy. The protocol: (§1) Measurements of NHEJ, HR, Alt-EJ and SSA assays were performed as previously described. HR activity was measured by counting GFP-positive cells by flow cytometry at the MWRI flow cytometry core using a BD LSRII (BD Biosciences). RAD51 overexpressing cells were generated by stable transfection of pLVX RAD51 IRES Neo and selection with geneticin (Invitrogen).
U2OS cells were prepared as above, but 5 h following compound treatment, cells were transferred into the Incucyte Zoom (Essen) live-cell imaging automated fluorescence microscope at 37° C. with 5% CO2. Cell confluence and green object count per mm2 were determined using Incucyte Zoom software. […]
NO2-OA-dependent effects on HR DNA repair were further investigated by utilizing a DRGFP reporter assay. This analysis quantifies intracellular recombination of an integrated cDNA cassette of two tandem non-fluorescent GFP constructs following introduction of an I-SceI cleavage to the system by measuring the fluorescent GFP protein that is produced following successful recombination. […] A novel strategy was used to measure the kinetics of changes in HR in live cells by using automated fluorescence microscopy to track the emergence of GFP positive cells over time in monolayers, as opposed to making static measurements of detached cells using flow cytometry. […]

The next experiment concerns MCF-10A cells. As to the kind of experiment: RAD51 foci and γH2AX immunofluorescence after 5 Gy IR. It counts as cell-based. The protocol: FIGS. 1A-1K. […] FIG. 1A. […] FIG. 1C. […] EC50 values indicate average+SEM, n=3. FIGS. 1D-1F. […] FIG. 1G. […] FIGS. 1H-1I. […] Merged samples include DAPI stained nuclei (blue). […] The average percentages of cells with 5 or more foci from confocal z-stacked images are indicated from 0 or 5 Gy samples+SEM. FIG. 1J. […] Rad51 foci were counted and γH2AX intensities were assessed by ImageJ in 5Gy irradiated cells (histograms), that were analyzed by immunofluorescence (IF). FIG. 1K, upper part. […] FIG. 1K, lower part. Combination index (CI) was calculated by the Chou-Talalay method. CI<1 is synergistic. Data represent the mean from three independent experiments.
To analyze RAD51 foci formation, 10,000 cells were plated to CultureWell 16-well chambered cover glass (MIDSCI) coated with poly-L-lysine (Sigma) and incubated overnight in 5% FBS media. […] Cells were fixed with 10% formalin for 20 min at 4° C. and immunostained with RAD51 (Santa Cruz) or γH2AX (EMD Biosciences) antibodies. Z-stack images were acquired using a Nikon AIR confocal microscope with 60× oil objective and acquisition performed using NIS elements software. Quantification of z-stacks and foci were completed using ImageJ software.

In experiment [3] the test system is homologous recombination (DR-GFP, U2OS cells). As to the kind of experiment: DR-GFP HR reporter assay in U2OS cells. It counts as cell-based. The protocol:
as §1
U2OS cells were prepared as above, but 5 h following compound treatment, cells were transferred into the Incucyte Zoom (Essen) live-cell imaging automated fluorescence microscope at 37° C. with 5% CO2. Cell confluence and green object count per mm2 were determined using Incucyte Zoom software. Green object count per field was normalized to cell confluency to correct for NO2—OA-induced effects on cell proliferation.
NO2-OA-dependent effects on HR DNA repair were further investigated by utilizing a DRGFP reporter assay. This analysis quantifies intracellular recombination of an integrated cDNA cassette of two tandem non-fluorescent GFP constructs following introduction of an I-SceI cleavage to the system by measuring the fluorescent GFP protein that is produced following successful recombination. […] A novel strategy was used to measure the kinetics of changes in HR in live cells by using automated fluorescence microscopy to track the emergence of GFP positive cells over time in monolayers, as opposed to making static measurements of detached cells using flow cytometry. […] This was indicated by an absence of changes in the number of GFP positive cells following I-SceI cleavage after 48 h by flow cytometric analysis or over 68 h by live-cell fluorescence microscopy (FIGS. 2C, 2D).
(A reporter such as luciferase makes a cellular process visible.)

The target of another experiment is T2, RelA (Homo sapiens, UniProt Q04206).
T2 construct: endogenous in cells; host or cells: MDA-MB-231, MDA-MB-468
T2 sequence (Q04206 whole entry): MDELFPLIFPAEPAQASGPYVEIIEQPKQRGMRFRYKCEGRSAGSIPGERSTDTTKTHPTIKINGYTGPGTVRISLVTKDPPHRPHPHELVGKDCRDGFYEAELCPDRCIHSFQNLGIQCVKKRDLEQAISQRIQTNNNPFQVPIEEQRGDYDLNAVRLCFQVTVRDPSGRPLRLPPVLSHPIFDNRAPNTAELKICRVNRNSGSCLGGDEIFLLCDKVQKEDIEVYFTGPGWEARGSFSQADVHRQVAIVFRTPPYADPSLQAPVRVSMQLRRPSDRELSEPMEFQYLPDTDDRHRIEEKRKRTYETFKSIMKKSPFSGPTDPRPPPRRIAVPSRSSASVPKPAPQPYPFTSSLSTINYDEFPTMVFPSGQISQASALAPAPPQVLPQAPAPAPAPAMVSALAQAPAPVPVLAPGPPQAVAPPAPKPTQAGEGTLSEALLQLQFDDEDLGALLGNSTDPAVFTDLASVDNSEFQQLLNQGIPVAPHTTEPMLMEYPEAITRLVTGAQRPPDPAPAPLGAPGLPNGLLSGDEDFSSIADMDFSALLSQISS
The experiment in a line: Biotinylated NO2-FA protein alkylation pull-down and proteomics. Particulars: recombinant RelA protein. It counts as binding. The protocol: After 2 hr cells were harvested in lysis buffer containing 1% Triton X, 10% glycerol, 150 mM NaCl, 10 mM HEPES, 1 mM EDTA, 1 mM EGTA, and supplemented with a mixture of protease and phosphatase inhibitors (Roche Applied Science). Total cell lysates (0.5-1 mg) were mixed and incubated with streptavidin agarose beads (Sigma-Aldrich) at 4° C., overnight. Beads were washed three times using lysis buffer. After SDS-PAGE, immunoblotting was performed using anti-RelA mouse monoclonal antibody (Santa Cruz Biotechnology) or anti-IKKβ rabbit polyclonal antibody (Cell Signaling). Proteomics analysis for the alkylation of RelA by NO2-OA was also conducted using recombinant RelA protein and LC-MS/MS analysis.

T1 sequence (Q06609 whole entry, one chain of several): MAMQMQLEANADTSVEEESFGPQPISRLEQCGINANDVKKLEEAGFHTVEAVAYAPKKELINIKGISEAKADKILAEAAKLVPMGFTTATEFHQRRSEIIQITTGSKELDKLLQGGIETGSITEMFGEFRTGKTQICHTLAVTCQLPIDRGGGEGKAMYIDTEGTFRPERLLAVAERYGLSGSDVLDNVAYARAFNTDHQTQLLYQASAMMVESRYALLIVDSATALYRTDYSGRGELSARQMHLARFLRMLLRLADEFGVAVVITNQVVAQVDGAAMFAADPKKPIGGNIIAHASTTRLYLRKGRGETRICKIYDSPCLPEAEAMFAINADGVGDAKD

With `CCCCCCCCC(=CCCCCCCCC(=O)O)[N+](=O)[O-]` [NO2-OA, 10-nitro-octadec-9-enoic acid], at RAD51-ABL complex, the “ABL bound to RAD51” value is given as “decreased the amount of ABL bound to RAD51” and the “RAD51 Tyr315 phosphorylation” value is reported as “inhibited”. The cell cycle changes entry in the experiment with MDA-MB-231 cells is reported as “no significant changes to the cell cycle occurred”. Also, the “polyubiquitination of RelA” value in experiment [1] (5 μM, 5 hr) is “promoted polyubiquitination of RelA”. The RelA protein abundance entry in experiment [1] (5 μM, 24 hr) is given as “decreased the abundance of RelA”. Further, the “RelA mRNA levels” value in experiment [1] (all three cell lines (MDA-MB-231, MDA-MB-468, MCF-10A)) was “not altered”. Also, the “effect on NHEJ (GFP positive cells)” value in experiment [2] was “no effect”. Moreover, the “RAD51 foci / γH2AX in irradiated benign cells” value with MCF-10A cells is “no effect”. For the same compound, the “HR activity in RAD51 overexpressing versus control reporter cells” value in experiment [3] (5 μM NO2-OA) was “significantly increased”. The “decrease in number of GFP-positive cells (HR)” value in experiment [3] (daily 5 μM, over 68 h, live-cell microscopy) stood at 2 fold. Moreover, the “decrease in number of GFP positive cells (HR)” value in experiment [3] (daily NO2-OA, 48 h, flow cytometry, versus OA or vehicle) was 2 fold. In addition, the “RelA Cys105 alkylation (LC-MS/MS proteomics)” value on RelA is recorded as “alkylated”.
